Numbered stars: 1 amine (or outer) side, 2 acyl side, 3 side chain; on linkers, the order of the positions; unused ones are H or OH. Bridge positions count the residues as written; N and C are the ends. Square brackets hold non-standard residues; d marks the D form. Peptide text beside a SMILES is read from it. * marks the point of attachment. ξ: configuration not given here. ξOrn(4,5-diOH) = O=C(C(CC(O)C(O)N[*:3])N[*:1])[*:2]; ξhTyr(βξ-OH,γξ-OH) = NC(C(=O)O)C(O)C(O)c1ccc(O)cc1; X1 = O=C(C1C(O)C(CO)CN1[*:1])[*:2]; Palmitoyl = CCCCCCCCCCCCCCCC(=O)*; Hyp = O=C(O)[CH]1C[CH](O)CN1
Legend:
Candida albicans = assay: MIC, microbroth dilution assay (NCCLS); format: cell-based
Cryptococcus neoformans = assay: MIC, microbroth dilution assay (NCCLS); format: cell-based
Aspergillus fumigatus = assay: MIC, microbroth dilution assay (NCCLS); format: cell-based
Candida parasilopsis = assay: MIC, microbroth dilution assay (NCCLS); format: cell-based
Histoplasma capsulatum = format: cell-based
nail and skin infections = assay: Nail and skin infections with human volunteers; format: in vivo

Compound	Minimum Inhibitory Concentration (Candida albicans)	Minimum Inhibitory Concentration (Cryptococcus neoformans)	Minimum Inhibitory Concentration (Aspergillus fumigatus)	Minimum Inhibitory Concentration (Candida parasilopsis)	Minimum Inhibitory Concentration (Histoplasma capsulatum)	effect on fungus (in words) (Cryptococcus neoformans)	effect on fungus (in words) (Aspergillus fumigatus)	results on nail and skin infections (nail and skin infections)
C[C@@H]1[C@H](O)[C@@H](C)/C=C/C=C/C=C/C=C/C=C/C=C/C=C/[C@H](O[C@@H]2O[C@H](C)[C@@H](O)[C@H](N)[C@@H]2O)C[C@@H]2O[C@](O)(C[C@@H](O)C[C@@H](O)[C@H](O)CC[C@@H](O)C[C@@H](O)CC(=O)O[C@H]1C)C[C@H](O)[C@H]2C(=O)O [Amphotericin B, reference compound]	0.04 µg/mL	0.04 µg/mL	0.03 µg/mL	0.01 µg/mL	0.01 µg/mL			
CCCCCCCCCCCCCCCC(=O)NC1CC(O)C(O)NC(=O)C2C(O)C(CO)CN2C(=O)C(CCC(N)=O)NC(=O)C(C(O)C(O)c2ccc(O)cc2)NC(=O)C2CC(O)CN2C(=O)C(C(C)O)NC1=O (stereo not drawn) [Cryptocandin] (Palmitoyl-[ξOrn(4,5-diOH)]T[Hyp][ξhTyr(βξ-OH,γξ-OH)]Q[X1]; lactam 1-C; configuration not given here)	0.03 µg/mL	>20 µg/mL	>20 µg/mL	2.5 µg/mL	0.01 µg/mL	little effect	little effect	promising results
Echinocandin B [reference compound]	0.3 µg/mL	>20 µg/mL	>20 µg/mL					

Source: patent publication US6613738B1, “Cyclic lipopeptide from Cryptosporiopsis quercina possessing antifungal activity” (HMV Corporation, priority 1998, dated 2003)
